Source: US11466020B2, “Compounds and compositions for inhibition and elimination of Zika infection and uses for same” (Cornell University, priority 2017, dated 2022)
Entries after “also recorded” stand apart in the source; their conditions may differ. Counter-ions that a name gives are not always drawn.

Tests used:
ZIKV MR766 virus strain = experiment: Prophylactic treatment of ZIKV infected SCID-Beige mice; assay type: in vivo
Method: (A) Scheme of prophylactic treatment of HH in vivo. HH was administrated to SCID-Beige mice 12 h before infection with MR766 virus strain. HH was injected at a dose of 100 mg/kg/day subcutaneously and euthanized at day 7. (B) qRT-PCR analysis of total ZIKV vRNA in liver, spleen, kidney and brain of ZIKV infected mice. n=12 for liver, spleen and kidney and 20 for brain. (C) qRT-PCR analysis of total ZIKV vRNA in brains of ZIKV-infected mice treated with vehicle (n=14) or HH (n=8). […] (D-F) Immunohistochemical analysis of adult cortex. […] Scale bar=100 μm in (D) and 10 μm in (E, F). (G-I) Immunohistochemical analysis of adult hippocampus. […] Scale bar=100 μm in (G) and 10 μm in (H, I). (J-L) Immunohistochemical analysis of adult striatum. […] Scale bar=100 μm in (J) and 10 μm in (K, L). (M, N) Immunohistochemical analysis of cellular apoptosis in adult cortex. […] Scale bar=100 μm in (M) and 10 μm in (N). (O, P) Expression kinetics of total vRNA (O) and (−) strand vRNA (P) of ZIKV (MR766 strain) in mouse brain. N is larger or equal to 4 mice at each time points. The mice were inoculated with (1×10^6 PFU) through intraperitoneal injection. The mice were euthanized at 12 h, 24 h, 3 days, 4 days and 5 days post-infection. (Q) Scheme of therapeutic treatment of HH on ZIKV (MR766 strain) infected mice. The SCID-beige mice were infected with ZIKV (MR766 strain, 1×10^6 PFU). The mice at 5 days post-infection were treated with 100 mg/kg HH or vehicle daily for 5 days. The mice were then euthanized and RNA from brains was analyzed using qRT-PCR. (R, S) qRT-PCR analysis of total vRNA (R) and (−) strand RNA (S) in the brains of mice treated with vehicle (n=8) or HH (n=8) at day 5 post-infection. (T, U) Expression kinetics of total vRNA (N) and (−) strand vRNA (O) of ZIKV (FSS13025 strain) in mouse brain. N is larger or equal to 4 mice at each time points. The mice were inoculated with (3×10^6 PFU) through intraperitoneal injection. The mice were euthanized at 12 h, 24 h, 3 days, 5 days and 7 days post-infection. (V) Scheme of therapeutic treatment of HH on ZIKV (FSS13025 strain) infected mice. The SCID-beige mice were infected with ZIKV (FSS13025 strain, 3×10^6 PFU). The mice at 7 days post-infection were treated with 100 mg/kg HH or vehicle daily for 7 days. The mice were euthanized after 7 days treatment and RNA from brains was analyzed using qRT-PCR. (W, X) qRT-PCR analysis of total vRNA (W) and (−) strand RNA (X) in the brains of mice treated with vehicle (n=8) or HH (n=11) at day 7 post-infection. p values were calculated by one-way repeated measures ANOVA or two-way repeated measures ANOVA with a Bonferroni test for multiple comparisons. *p<0.05, **p<0.01 and ***p<0.001.
PBS, the solvent used to dissolve both compounds, was used as vehicle control.
The mice were euthanized at day 7 post-infection. Total ZIKV vRNA was then quantified in multiple organs of ZIKV-infected mice treated with vehicle, including liver, spleen, kidney and brain (FIG. 4B).
The immunohistochemical analysis of mouse tissues was performed on cryosections. In brief, the tissues were fixed overnight with 4% PFA at 4° C., embedded in OCT, and then sectioned at 30 μm for immunostaining. The primary and secondary antibodies were used as described above.
Adult mouse infection and in vivo drug testing. 6-8 week old female SCID-Beige mice were infected with ZIKV (2.5×10^5 PFU in 0.5 ml culture fluid) through intraperitoneal injection.

[1] = molecular target: histamine-N-methyltransferase (Homo sapiens, UniProt P50135); settings: Horton et al. 2005; cited from earlier work
[2] = HH 100 mg/kg/day subcutaneously, hydrobromide

Sequence of histamine-N-methyltransferase (P50135 whole entry, species assumed): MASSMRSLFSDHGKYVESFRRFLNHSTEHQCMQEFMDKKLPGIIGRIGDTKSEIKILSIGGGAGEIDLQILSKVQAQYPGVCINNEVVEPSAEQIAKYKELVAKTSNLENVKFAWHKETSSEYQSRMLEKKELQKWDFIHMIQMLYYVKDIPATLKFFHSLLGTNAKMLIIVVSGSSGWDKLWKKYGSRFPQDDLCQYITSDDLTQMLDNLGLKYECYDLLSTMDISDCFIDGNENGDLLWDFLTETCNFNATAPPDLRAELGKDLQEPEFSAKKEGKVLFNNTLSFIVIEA

Row | Structure (SMILES) | ZIKV vRNA in brain (ZIKV MR766 virus strain; HH 100 mg/kg/day subcutaneously from 12 h before infection, day 7 post-infection) | ZIKV infection of adult cortex (immunohistochemistry) (ZIKV MR766 virus strain; [2]) | ZIKV infection of adult hippocampus (immunohistochemistry) (ZIKV MR766 virus strain; [2]) | ZIKV infection of adult striatum (immunohistochemistry) (ZIKV MR766 virus strain; [2]) | cellular apoptosis (CAS3) associated with ZIKV infection in the cortex (ZIKV MR766 virus strain; [2]) | inhibition of histamine-N-methyltransferase [1]
1 | CN1CCC2=C[C@H](O)[C@H]3OC(=O)c4cc5c(cc4[C@H]3[C@@H]21)OCO5 [HH, hippeastrine hydrobromide] | significantly lower level | fully inhibits infection of adult cortex; also recorded: completely inhibited | completely inhibits infection of the adult hippocampus; also recorded: completely inhibited | fully inhibits infection of the adult striatum; also recorded: completely inhibited | rescues cellular apoptosis; also recorded: completely inhibited | –
2 | CCN(CC)Cc1cc(Nc2ccnc3cc(Cl)ccc23)ccc1O [AQ, amodiaquine dihydrochloride dihydrate] | – | – | – | – | – | potent inhibitor
